Results from patent US5151417A, “3-substituted vinyl cephalosporin derivatives” (Eisai Co., Ltd., priority 1989, dated 1992).
In brackets after ≈: the same amount, converted by molar mass. Where two headings read alike, the source gives them in different places. Values belong to the compound of their own block, whether it stands above or below them.

Legend:
Format in all cases: cell-based
[1] = system: Staphylococcus aureus 209-P; assay: In vitro antibacterial activity, Staphylococcus aureus 209-P (Tables 2-6)
Experimental: (§1) Typical compounds out of the compounds described in Examples were classified into some groups. On each compound group, in vitro antibacterial activities were tested by a method known per se in the art.

[2] = system: Escherichia coli NIHJ; assay: In vitro antibacterial activity, Escherichia coli NIHJ (Tables 2-6)
Experimental: as §1

[3] = system: Klebsiella pneumoniae EK-6; assay: In vitro antibacterial activity, Klebsiella pneumoniae EK-6 (Tables 2-6)
Experimental: as §1

[4] = system: Serratia marcescens ES-75; assay: In vitro antibacterial activity, Serratia marcescens ES-75 (Tables 2-6)
Experimental: as §1

[5] = system: Morganella morganii EP-14; assay: In vitro antibacterial activity, Morganella morganii EP-14 (Tables 2-6)
Experimental: as §1

[6] = Staphylococcus aureus, 209P, Staphylococcus aureus 209-P, read-out: MIC
[7] = Escherichia coli, Escherichia coli NIHJ, read-out: MIC
[8] = Klebsiella pneumoniae, EK6, Klebsiella pneumoniae EK-6, read-out: MIC
[9] = Serratia marcescens, ES75, Serratia marcescens ES-75, read-out: MIC
[10] = Morganella morganii, EP14, Morganella morganii EP-14, read-out: MIC

Structure (SMILES): CO/N=C(\C(=O)N[C@@H]1C(=O)N2C(C(=O)O)=C(/C=C\c3cncnc3)CS[C@H]12)c1csc(N)n1 [Example 14]
MIC [1, 6]: 0.8 µg/mL (≈ 1.64 µM)
MIC [2, 7]: 0.4 µg/mL (≈ 0.82 µM)
MIC [3, 8]: 0.2 µg/mL (≈ 0.41 µM)
MIC [4, 9]: 0.8 µg/mL (≈ 1.64 µM)
MIC [5, 10]: 0.05 µg/mL (≈ 0.103 µM)

Structure (SMILES): Nc1nc(/C(=N/O)C(=O)N[C@@H]2C(=O)N3C(C(=O)[O-])=C(/C=C\c4cncnc4)CS[C@H]23)cs1.[Na+] [Example 16, Sodium 7β-[(Z)-2-(2-aminothiazol-4-yl)-2-(hydroxyimino)acetamido]-3-[(Z)-2 (pyrimidin-5-yl)vinyl]-3-cephem-4-carboxylate]
MIC ([1]; Staphylococcus aureus, 209P): 0.2 µg/mL
MIC ([2]; Escherichia coli): 0.1 µg/mL
MIC ([3]; Klebsiella pneumoniae, EK6): 0.05 µg/mL
MIC ([4]; Serratia marcescens, ES75): > 100 µg/mL
MIC ([5]; Morganella morganii, EP14): 0.012 µg/mL

Structure (SMILES): Cc1ncc(/C=C\C2=C(C(=O)O)N3C(=O)[C@@H](NC(=O)/C(=N\O)c4csc(N)n4)[C@H]3SC2)cn1 [Example 21]
MIC [1, 6]: 0.2 µg/mL (≈ 0.41 µM)
MIC [2, 7]: 0.2 µg/mL (≈ 0.41 µM)
MIC [3, 8]: 0.1 µg/mL (≈ 0.205 µM)
MIC [4, 9]: 0.2 µg/mL (≈ 0.41 µM)
MIC [5, 10]: 0.025 µg/mL (≈ 0.0513 µM)

Structure (SMILES): Nc1nc(/C(=N/O)C(=O)N[C@@H]2C(=O)N3C(C(=O)[O-])=C(/C=C/c4cncnc4N)CS[C@H]23)cs1.[Na+] [Example 23, Sodium 7β[(Z)-2-(2-aminothiazol-4-yl)-2-(hydroxyimino)acetamido]-3-[(E)-2-(4-aminopyrimidin-5-yl)vinyl]-3-cephem-4-carboxylate]
MIC ([1]; Staphylococcus aureus, 209P): 0.2 µg/mL
MIC ([2]; Escherichia coli): 0.4 µg/mL
MIC ([3]; Klebsiella pneumoniae, EK6): 0.025 µg/mL
MIC ([4]; Serratia marcescens, ES75): > 100 µg/mL
MIC ([5]; Morganella morganii, EP14): 0.012 µg/mL

Structure (SMILES): COc1ncncc1/C=C\C1=C(C(=O)[O-])N2C(=O)[C@@H](NC(=O)/C(=N\O)c3csc(N)n3)[C@H]2SC1.[Na+] [Example 25, Sodium 7β-[(Z)-2-(2-aminothiazol-4-yl)-2-(hydroxyimino)acetamido]-3-[(Z)-2-(4-methoxypyrimidin-5-yl)vinyl]-3-cephem-4-carboxylate]
MIC ([1]; Staphylococcus aureus, 209P): 0.2 µg/mL
MIC ([2]; Escherichia coli): 0.8 µg/mL
MIC ([3]; Klebsiella pneumoniae, EK6): 0.4 µg/mL
MIC ([4]; Serratia marcescens, ES75): 0.2 µg/mL
MIC ([5]; Morganella morganii, EP14): 0.1 µg/mL

Structure (SMILES): CO/N=C(\C(=O)N[C@@H]1C(=O)N2C(C(=O)O)=C(/C=C/c3c(Cl)ncnc3Cl)CS[C@H]12)c1csc(N)n1 [Example 29 (E)]
MIC [4, 9]: 6.25 µg/mL (≈ 11.2 µM)
MIC [5, 10]: 0.4 µg/mL (≈ 0.719 µM)

Structure (SMILES): Nc1nc(/C(=N/O)C(=O)NC2C(=O)N3C(C(=O)O)=C(/C=C\COC(=O)N4CCOCC4)CSC23)cs1 (centres unmarked) [Example 32, Sodium 7-[(Z)-2-(2-aminothiazol-4-yl)-2-hydroxyiminoacetamido]-3-[(Z)-3-(1-morphorinylcarbonyloxy)-1-propenyl]-3-cephem-4-carboxylate]
MIC [1, 6]: 0.2 µg/mL
MIC [2, 7]: 0.2 µg/mL
MIC [3, 8]: 0.1 µg/mL

Continued, values first:

MIC [1, 6]: 0.4 µg/mL (≈ 0.834 µM)
MIC [2, 7]: 0.4 µg/mL (≈ 0.834 µM)
MIC [3, 8]: 0.2 µg/mL (≈ 0.417 µM)
MIC ([4]; Serratia marcescens ES-75): 0.025 µg/mL (≈ 0.0521 µM)
MIC ([5]; Morganella morganii EP-14): 0.025 µg/mL (≈ 0.0521 µM)
Structure (SMILES): CO/N=C(\C(=O)N[C@@H]1C(=O)N2C(C(=O)O)=C(/C=C/C3CCCO3)CS[C@H]12)c1csc(N)n1 (single isomer, unassigned) [48 A]

MIC ([1]; Staphylococcus aureus 209-P): 0.8 µg/mL (≈ 1.67 µM)
MIC ([2]; Escherichia coli NIHJ): 0.8 µg/mL (≈ 1.67 µM)
MIC ([3]; Klebsiella pneumoniae EK-6): 0.4 µg/mL (≈ 0.834 µM)
MIC ([4]; Serratia marcescens ES-75): 0.1 µg/mL (≈ 0.209 µM)
MIC ([5]; Morganella morganii EP-14): 0.2 µg/mL (≈ 0.417 µM)
Structure (SMILES): CO/N=C(\C(=O)N[C@@H]1C(=O)N2C(C(=O)O)=C(/C=C/C3CCCO3)CS[C@H]12)c1csc(N)n1 (single isomer, unassigned) [48 B]

MIC [1, 6]: 0.1 µg/mL (≈ 0.215 µM)
MIC ([2]; Escherichia coli NIHJ): 0.2 µg/mL (≈ 0.43 µM)
MIC [3, 8]: 0.2 µg/mL (≈ 0.43 µM)
MIC ([4]; Serratia marcescens ES-75): 0.1 µg/mL (≈ 0.215 µM)
MIC ([5]; Morganella morganii EP-14): 0.05 µg/mL (≈ 0.107 µM)
Structure (SMILES): Nc1nc(/C(=N/O)C(=O)N[C@@H]2C(=O)N3C(C(=O)O)=C(/C=C/C4CCCO4)CS[C@H]23)cs1 (single isomer, unassigned) [50 A]

MIC ([1]; Staphylococcus aureus 209-P): 0.1 µg/mL (≈ 0.215 µM)
MIC ([2]; Escherichia coli NIHJ): 0.8 µg/mL (≈ 1.72 µM)
MIC ([3]; Klebsiella pneumoniae EK-6): 0.4 µg/mL (≈ 0.859 µM)
MIC ([4]; Serratia marcescens ES-75): 0.4 µg/mL (≈ 0.859 µM)
MIC ([5]; Morganella morganii EP-14): 0.2 µg/mL (≈ 0.43 µM)
Structure (SMILES): Nc1nc(/C(=N/O)C(=O)N[C@@H]2C(=O)N3C(C(=O)O)=C(/C=C/C4CCCO4)CS[C@H]23)cs1 (single isomer, unassigned) [50 B]
